Test results reported in patent US20080206334A1 (priority 2005, published 2008).
Structures can show the parent of a compound that is named as a salt.

Columns and labels:
[1] = Excipient compatibility by DSC; type: physicochemical; conditions: 1:1 (w/w) mixtures with xanthan gum, chitosan, magnesium stearate, NaHCO3
Description: Samples of 5-10 mg in weight were placed in hermetically sealed DSC pans. Samples were scanned at a rate of 10° C./min, and thermograms were obtained. The thermal analyzer (DSC) was calibrated prior to use by indium. The calibration procedure was repeated many times prior to DSC runs.

[2] = cited from earlier work
[3] = administered orally; cited from earlier work

Question: For `CC(C)(C)NCC(O)c1cc(O)cc(O)c1` (stereo not drawn) [Terbutaline sulfate], which “Excipient compatibility (DSC thermograms)” value [1] is on record?
Answer: excipients are compatible with Terbutaline sulfate

Question: What about the Solubility in water [2] of the same molecule?
Answer: > 20 mg/mL

Question: And the Biological half-life [3]?
Answer: about 3.6 hrs
